The NIST ThermoML archive (doi:10.1016/j.jct.2016.08.005)

Conditions: Liquid, Vibrating tube method

Cc1ccc(C)s1 [2,5-dimethylthiophene]
Conditions	mass density [kg/m3]
283.15 K, 100 kPa	995.51
283.15 K, 2000 kPa	996.96
283.15 K, 5000 kPa	999.21
283.15 K, 7000 kPa	1000.68
283.15 K, 10000 kPa	1002.83
283.15 K, 15000 kPa	1006.35
283.15 K, 20000 kPa	1009.74
283.15 K, 25000 kPa	1013.04
283.15 K, 30000 kPa	1016.24
283.15 K, 35000 kPa	1019.33
283.15 K, 40000 kPa	1022.34
283.15 K, 45000 kPa	1025.27
283.15 K, 50000 kPa	1028.12
283.15 K, 55000 kPa	1030.9
283.15 K, 60000 kPa	1033.6
283.15 K, 65000 kPa	1036.24
288.15 K, 100 kPa	990.41
288.15 K, 2000 kPa	991.9
288.15 K, 5000 kPa	994.21
288.15 K, 7000 kPa	995.72
288.15 K, 10000 kPa	997.94
288.15 K, 15000 kPa	1001.53
288.15 K, 20000 kPa	1005.01
288.15 K, 25000 kPa	1008.38
288.15 K, 30000 kPa	1011.66
288.15 K, 35000 kPa	1014.81
288.15 K, 40000 kPa	1017.89
288.15 K, 45000 kPa	1020.88
288.15 K, 50000 kPa	1023.78
288.15 K, 55000 kPa	1026.62
288.15 K, 60000 kPa	1029.38
288.15 K, 65000 kPa	1032.06
293.15 K, 100 kPa	985.3
293.15 K, 2000 kPa	986.82
293.15 K, 5000 kPa	989.21
293.15 K, 7000 kPa	990.74
293.15 K, 10000 kPa	993.02
293.15 K, 15000 kPa	996.71
293.15 K, 20000 kPa	1000.28
293.15 K, 25000 kPa	1003.72
293.15 K, 30000 kPa	1007.07
293.15 K, 35000 kPa	1010.31
293.15 K, 40000 kPa	1013.45
293.15 K, 45000 kPa	1016.49
293.15 K, 50000 kPa	1019.47
293.15 K, 55000 kPa	1022.35
293.15 K, 60000 kPa	1025.15
293.15 K, 65000 kPa	1027.88
298.15 K, 100 kPa	980.2
298.15 K, 2000 kPa	981.78
298.15 K, 5000 kPa	984.2
298.15 K, 7000 kPa	985.8
298.15 K, 10000 kPa	988.14
298.15 K, 15000 kPa	991.93
298.15 K, 20000 kPa	995.59
298.15 K, 25000 kPa	999.13
298.15 K, 30000 kPa	1002.53
298.15 K, 35000 kPa	1005.84
298.15 K, 40000 kPa	1009.04
298.15 K, 45000 kPa	1012.17
298.15 K, 50000 kPa	1015.2
298.15 K, 55000 kPa	1018.14
298.15 K, 60000 kPa	1021.01
298.15 K, 65000 kPa	1023.8
303.15 K, 100 kPa	975.1
303.15 K, 2000 kPa	976.72
303.15 K, 5000 kPa	979.23
303.15 K, 7000 kPa	980.88
303.15 K, 10000 kPa	983.27
303.15 K, 15000 kPa	987.17
303.15 K, 20000 kPa	990.9
303.15 K, 25000 kPa	994.52
303.15 K, 30000 kPa	998.02
303.15 K, 35000 kPa	1001.4
303.15 K, 40000 kPa	1004.69
303.15 K, 45000 kPa	1007.85
303.15 K, 50000 kPa	1010.94
303.15 K, 55000 kPa	1013.93
303.15 K, 60000 kPa	1016.85
303.15 K, 65000 kPa	1019.68
308.15 K, 100 kPa	970
308.15 K, 2000 kPa	971.66
308.15 K, 5000 kPa	974.22
308.15 K, 7000 kPa	975.91
308.15 K, 10000 kPa	978.38
308.15 K, 15000 kPa	982.36
308.15 K, 20000 kPa	986.2
308.15 K, 25000 kPa	989.91
308.15 K, 30000 kPa	993.47
308.15 K, 35000 kPa	996.93
308.15 K, 40000 kPa	1000.28
308.15 K, 45000 kPa	1003.53
308.15 K, 50000 kPa	1006.66
308.15 K, 55000 kPa	1009.75
308.15 K, 60000 kPa	1012.72
308.15 K, 65000 kPa	1015.59
313.15 K, 100 kPa	964.84
313.15 K, 2000 kPa	966.6
313.15 K, 5000 kPa	969.22
313.15 K, 7000 kPa	970.97
313.15 K, 10000 kPa	973.5
313.15 K, 15000 kPa	977.58
313.15 K, 20000 kPa	981.52
313.15 K, 25000 kPa	985.31
313.15 K, 30000 kPa	988.97
313.15 K, 35000 kPa	992.49
313.15 K, 40000 kPa	995.92
313.15 K, 45000 kPa	999.23
313.15 K, 50000 kPa	1002.44
313.15 K, 55000 kPa	1005.56
313.15 K, 60000 kPa	1008.58
313.15 K, 65000 kPa	1011.53
318.15 K, 100 kPa	959.75
318.15 K, 2000 kPa	961.52
318.15 K, 5000 kPa	964.24
318.15 K, 7000 kPa	966
318.15 K, 10000 kPa	968.6
318.15 K, 15000 kPa	972.8
318.15 K, 20000 kPa	976.83
318.15 K, 25000 kPa	980.72
318.15 K, 30000 kPa	984.44
318.15 K, 35000 kPa	988.06
318.15 K, 40000 kPa	991.55
318.15 K, 45000 kPa	994.93
318.15 K, 50000 kPa	998.2
318.15 K, 55000 kPa	1001.39
318.15 K, 60000 kPa	1004.46
318.15 K, 65000 kPa	1007.46
323.15 K, 100 kPa	954.64
323.15 K, 2000 kPa	956.46
323.15 K, 5000 kPa	959.26
323.15 K, 7000 kPa	961.09
323.15 K, 10000 kPa	963.75
323.15 K, 15000 kPa	968.05
323.15 K, 20000 kPa	972.19
323.15 K, 25000 kPa	976.16
323.15 K, 30000 kPa	979.99
323.15 K, 35000 kPa	983.67
323.15 K, 40000 kPa	987.24
323.15 K, 45000 kPa	990.69
323.15 K, 50000 kPa	994.03
323.15 K, 55000 kPa	997.27
323.15 K, 60000 kPa	1000.41
323.15 K, 65000 kPa	1003.46
328.15 K, 100 kPa	949.46
328.15 K, 2000 kPa	951.34
328.15 K, 5000 kPa	954.21
328.15 K, 7000 kPa	956.1
328.15 K, 10000 kPa	958.85
328.15 K, 15000 kPa	963.27
328.15 K, 20000 kPa	967.5
328.15 K, 25000 kPa	971.57
328.15 K, 30000 kPa	975.49
328.15 K, 35000 kPa	979.25
328.15 K, 40000 kPa	982.9
328.15 K, 45000 kPa	986.42
328.15 K, 50000 kPa	989.84
328.15 K, 55000 kPa	993.13
328.15 K, 60000 kPa	996.35
328.15 K, 65000 kPa	999.44
333.15 K, 100 kPa	944.28
333.15 K, 2000 kPa	946.2
333.15 K, 5000 kPa	949.16
333.15 K, 7000 kPa	951.09
333.15 K, 10000 kPa	953.92
333.15 K, 15000 kPa	958.46
333.15 K, 20000 kPa	962.79
333.15 K, 25000 kPa	966.97
333.15 K, 30000 kPa	970.97
333.15 K, 35000 kPa	974.83
333.15 K, 40000 kPa	978.55
333.15 K, 45000 kPa	982.15
333.15 K, 50000 kPa	985.62
333.15 K, 55000 kPa	988.98
333.15 K, 60000 kPa	992.25
333.15 K, 65000 kPa	995.41
338.15 K, 100 kPa	939.09
338.15 K, 2000 kPa	941.08
338.15 K, 5000 kPa	944.14
338.15 K, 7000 kPa	946.13
338.15 K, 10000 kPa	949.02
338.15 K, 15000 kPa	953.67
338.15 K, 20000 kPa	958.14
338.15 K, 25000 kPa	962.41
338.15 K, 30000 kPa	966.51
338.15 K, 35000 kPa	970.46
338.15 K, 40000 kPa	974.25
338.15 K, 45000 kPa	977.91
338.15 K, 50000 kPa	981.46
338.15 K, 55000 kPa	984.88
338.15 K, 60000 kPa	988.2
338.15 K, 65000 kPa	991.43
